From ChEMBL document CHEMBL5038625, “Application of the dual-tail approach for the design and synthesis of novel Thiopyrimidine-Benzenesulfonamide hybrids as selective carbonic anhydrase inhibitors” (Eur J Med Chem, 2022)

What was measured:
[1] = test system: LOX IMVI; assay: Antiproliferative activity against human LOX IMVI cells assessed as cell growth inhibition at 10 uM incubated for 24 hrs by sulforhodamine B assay; type: functional; conditions: read-out: GI
[2] = test system: SK-MEL-28; assay: Antiproliferative activity against human SK-MEL-28 cells assessed as cell growth inhibition at 10 uM incubated for 24 hrs by sulforhodamine B assay; type: functional; conditions: read-out: GI
[3] = test system: DU-145; assay: Antiproliferative activity against human DU-145 cells assessed as cell growth inhibition at 10 uM incubated for 24 hrs by sulforhodamine B assay; type: functional; conditions: read-out: GI
[4] = target: Carbonic anhydrase 9 (Homo sapiens, UniProt Q16790); assay: Inhibition of human CA9 preincubated for 15 mins by phenol red dye based stopped flow CO2 hydration assay
[5] = test system: T47D; assay: Antiproliferative activity against human T47D cells assessed as cell growth inhibition at 10 uM incubated for 24 hrs by sulforhodamine B assay; type: functional; conditions: read-out: GI
[6] = test system: SF-295; assay: Antiproliferative activity against human SF-295 cells assessed as cell growth inhibition at 10 uM incubated for 24 hrs by sulforhodamine B assay; type: functional; conditions: read-out: GI
[7] = test system: SN12C; assay: Antiproliferative activity against human SN12C cells assessed as cell growth inhibition at 10 uM incubated for 24 hrs by sulforhodamine B assay; type: functional; conditions: read-out: GI
[8] = test system: IGROV-1; assay: Antiproliferative activity against human IGROV-1 cells assessed as cell growth inhibition at 10 uM incubated for 24 hrs by sulforhodamine B assay; type: functional; conditions: read-out: GI
[9] = test system: HCT-15; assay: Antiproliferative activity against human HCT-15 cells assessed as cell growth inhibition at 10 uM incubated for 24 hrs by sulforhodamine B assay; type: functional; conditions: read-out: GI
[10] = test system: HOP-92; assay: Antiproliferative activity against human HOP-92 cells assessed as cell growth inhibition at 10 uM incubated for 24 hrs by sulforhodamine B assay; type: functional; conditions: read-out: GI
[11] = test system: RXF 393; assay: Antiproliferative activity against human RXF 393 cells assessed as cell growth inhibition at 10 uM incubated for 24 hrs by sulforhodamine B assay; type: functional; conditions: read-out: GI
[12] = test system: MDA-MB-231; assay: Antiproliferative activity against human MDA-MB-231 cells assessed as cell growth inhibition at 10 uM incubated for 24 hrs by sulforhodamine B assay; type: functional; conditions: read-out: GI
[13] = test system: NCI-H460; assay: Antiproliferative activity against human NCI-H460 cells assessed as cell growth inhibition at 10 uM incubated for 24 hrs by sulforhodamine B assay; type: functional; conditions: read-out: GI
[14] = test system: CAKI-1; assay: Antiproliferative activity against human CAKI-1 cells assessed as cell growth inhibition at 10 uM incubated for 24 hrs by sulforhodamine B assay; type: functional; conditions: read-out: GI
[15] = test system: UACC-62; assay: Antiproliferative activity against human UACC-62 cells assessed as cell growth inhibition at 10 uM incubated for 24 hrs by sulforhodamine B assay; type: functional; conditions: read-out: GI
[16] = test system: KM12; assay: Antiproliferative activity against human KM12 cells assessed as cell growth inhibition at 10 uM incubated for 24 hrs by sulforhodamine B assay; type: functional; conditions: read-out: GI
[17] = test system: 786-0; assay: Antiproliferative activity against human 786-0 cells assessed as cell growth inhibition at 10 uM incubated for 24 hrs by sulforhodamine B assay; type: functional; conditions: read-out: GI
[18] = test system: U-251; assay: Antiproliferative activity against human U-251 cells assessed as cell growth inhibition at 10 uM incubated for 24 hrs by sulforhodamine B assay; type: functional; conditions: read-out: GI
[19] = test system: SF-268; assay: Antiproliferative activity against human SF-268 cells assessed as cell growth inhibition at 10 uM incubated for 24 hrs by sulforhodamine B assay; type: functional; conditions: read-out: GI
[20] = test system: M14; assay: Antiproliferative activity against human M14 cells assessed as cell growth inhibition at 10 uM incubated for 24 hrs by sulforhodamine B assay; type: functional; conditions: read-out: GI
[21] = test system: TK-10; assay: Antiproliferative activity against human TK-10 cells assessed as cell growth inhibition at 10 uM incubated for 24 hrs by sulforhodamine B assay; type: functional; conditions: read-out: GI
[22] = test system: OVCAR-8; assay: Antiproliferative activity against human OVCAR-8 cells assessed as cell growth inhibition at 10 uM incubated for 24 hrs by sulforhodamine B assay; type: functional; conditions: read-out: GI
[23] = test system: BT-549; assay: Antiproliferative activity against human BT-549 cells assessed as cell growth inhibition at 10 uM incubated for 24 hrs by sulforhodamine B assay; type: functional; conditions: read-out: GI
[24] = test system: SNB-19; assay: Antiproliferative activity against human SNB-19 cells assessed as cell growth inhibition at 10 uM incubated for 24 hrs by sulforhodamine B assay; type: functional; conditions: read-out: GI
[25] = test system: MCF7; assay: Antiproliferative activity against human MCF7 cells assessed as reduction in cell viability incubated for 24 hrs by sulforhodamine B assay; type: functional, cell-based; conditions: MCF7, 24 h
[26] = test system: T47D; assay: Antiproliferative activity against human T47D cells assessed as reduction in cell viability incubated for 24 hrs by sulforhodamine B assay; type: functional, cell-based
[27] = test system: NCI-H226; assay: Antiproliferative activity against human NCI-H226 cells assessed as cell growth inhibition at 10 uM incubated for 24 hrs by sulforhodamine B assay; type: functional; conditions: read-out: GI
[28] = test system: PC-3; assay: Antiproliferative activity against human PC-3 cells assessed as cell growth inhibition at 10 uM incubated for 24 hrs by sulforhodamine B assay; type: functional; conditions: read-out: GI
[29] = test system: K562; assay: Antiproliferative activity against human K562 cells assessed as cell growth inhibition at 10 uM incubated for 24 hrs by sulforhodamine B assay; type: functional; conditions: read-out: GI
[30] = test system: MDA-MB-435; assay: Antiproliferative activity against human MDA-MB-435 cells assessed as cell growth inhibition at 10 uM incubated for 24 hrs by sulforhodamine B assay; type: functional; conditions: read-out: GI
[31] = test system: NCI/ADR-RES; assay: Antiproliferative activity against human NCI-ADR-RES cells assessed as cell growth inhibition at 10 uM incubated for 24 hrs by sulforhodamine B assay; type: functional; conditions: read-out: GI
[32] = test system: MDA-MB-231; assay: Antiproliferative activity against human MDA-MB-231 cells assessed as reduction in cell viability incubated for 24 hrs by sulforhodamine B assay; type: functional, cell-based; conditions: MDA-MB-231, 24 h
[33] = test system: ACHN; assay: Antiproliferative activity against human ACHN cells assessed as cell growth inhibition at 10 uM incubated for 24 hrs by sulforhodamine B assay; type: functional; conditions: read-out: GI
[34] = test system: NCI-H23; assay: Antiproliferative activity against human NCI-H23 cells assessed as cell growth inhibition at 10 uM incubated for 24 hrs by sulforhodamine B assay; type: functional; conditions: read-out: GI
[35] = test system: HCT-116; assay: Antiproliferative activity against human HCT-116 cells assessed as cell growth inhibition at 10 uM incubated for 24 hrs by sulforhodamine B assay; type: functional; conditions: read-out: GI
[36] = test system: SF-539; assay: Antiproliferative activity against human SF-539 cells assessed as cell growth inhibition at 10 uM incubated for 24 hrs by sulforhodamine B assay; type: functional; conditions: read-out: GI
[37] = test system: A549; assay: Antiproliferative activity against human A549 cells assessed as cell growth inhibition at 10 uM incubated for 24 hrs by sulforhodamine B assay; type: functional; conditions: read-out: GI
[38] = test system: OVCAR-3; assay: Antiproliferative activity against human OVCAR-3 cells assessed as cell growth inhibition at 10 uM incubated for 24 hrs by sulforhodamine B assay; type: functional; conditions: read-out: GI
[39] = test system: SR; assay: Antiproliferative activity against human SR cells assessed as cell growth inhibition at 10 uM incubated for 24 hrs by sulforhodamine B assay; type: functional; conditions: read-out: GI
[40] = test system: HT-29; assay: Antiproliferative activity against human HT-29 cells assessed as cell growth inhibition at 10 uM incubated for 24 hrs by sulforhodamine B assay; type: functional; conditions: read-out: GI
[41] = test system: SNB-75; assay: Antiproliferative activity against human SNB-75 cells assessed as cell growth inhibition at 10 uM incubated for 24 hrs by sulforhodamine B assay; type: functional; conditions: read-out: GI
[42] = test system: MCF7; assay: Antiproliferative activity against human MCF7 cells assessed as cell growth inhibition at 10 uM incubated for 24 hrs by sulforhodamine B assay; type: functional; conditions: read-out: GI
[43] = test system: UO-31; assay: Antiproliferative activity against human UO-31 cells assessed as cell growth inhibition at 10 uM incubated for 24 hrs by sulforhodamine B assay; type: functional; conditions: read-out: GI
[44] = test system: SW-620; assay: Antiproliferative activity against human SW-620 cells assessed as cell growth inhibition at 10 uM incubated for 24 hrs by sulforhodamine B assay; type: functional; conditions: read-out: GI
[45] = test system: NCI-H522; assay: Antiproliferative activity against human NCI-H522 cells assessed as cell growth inhibition at 10 uM incubated for 24 hrs by sulforhodamine B assay; type: functional; conditions: read-out: GI
[46] = test system: OVCAR-4; assay: Antiproliferative activity against human OVCAR-4 cells assessed as cell growth inhibition at 10 uM incubated for 24 hrs by sulforhodamine B assay; type: functional; conditions: read-out: GI
[47] = test system: CCRF-CEM; assay: Antiproliferative activity against human CCRF-CEM cells assessed as cell growth inhibition at 10 uM incubated for 24 hrs by sulforhodamine B assay; type: functional; conditions: read-out: GI
[48] = test system: Malme-3M; assay: Antiproliferative activity against human Malme-3M cells assessed as cell growth inhibition at 10 uM incubated for 24 hrs by sulforhodamine B assay; type: functional; conditions: read-out: GI
[49] = test system: MOLT-4; assay: Antiproliferative activity against human MOLT-4 cells assessed as cell growth inhibition at 10 uM incubated for 24 hrs by sulforhodamine B assay; type: functional; conditions: read-out: GI
[50] = test system: RPMI-8226; assay: Antiproliferative activity against human RPMI-8226 cells assessed as cell growth inhibition at 10 uM incubated for 24 hrs by sulforhodamine B assay; type: functional; conditions: read-out: GI
[51] = test system: HOP-62; assay: Antiproliferative activity against human HOP-62 cells assessed as cell growth inhibition at 10 uM incubated for 24 hrs by sulforhodamine B assay; type: functional; conditions: read-out: GI
[52] = test system: SK-MEL-5; assay: Antiproliferative activity against human SK-MEL-5 cells assessed as cell growth inhibition at 10 uM incubated for 24 hrs by sulforhodamine B assay; type: functional; conditions: read-out: GI

Cc1ccc(-c2nc(SCC(=O)c3ccccc3)nc(Nc3ccc(S(N)(=O)=O)cc3)c2C#N)cc1
inhibition of growth at 10 µM [1]: 84.5% | inhibition of growth at 10 µM [2]: 18.9% | inhibition of growth at 10 µM [3]: 39.3% | Ki [4]: 0.0074 µM | inhibition of growth at 10 µM [5]: 16.1% | inhibition of growth at 10 µM [6]: 63.3% | inhibition of growth at 10 µM [7]: 37% | inhibition of growth at 10 µM [8]: 13.7% | inhibition of growth at 10 µM [9]: 27.9% | inhibition of growth at 10 µM [10]: 62.4% | inhibition of growth at 10 µM [11]: 48.2% | inhibition of growth at 10 µM [12]: 67% | inhibition of growth at 10 µM [13]: 34.8% | inhibition of growth at 10 µM [14]: 48.5% | inhibition of growth at 10 µM [15]: 19.7% | inhibition of growth at 10 µM [16]: 27.2% | inhibition of growth at 10 µM [17]: 53.7% | inhibition of growth at 10 µM [18]: 52.6% | inhibition of growth at 10 µM [19]: 23.3% | inhibition of growth at 10 µM [20]: 63.3% | inhibition of growth at 10 µM [21]: 32.5% | inhibition of growth at 10 µM [22]: 65.4% | inhibition of growth at 10 µM [23]: 26.2% | inhibition of growth at 10 µM [24]: 22.8% | IC50 [25]: > 100 µM | IC50 [26]: > 100 µM | inhibition of growth at 10 µM [27]: 28.6% | inhibition of growth at 10 µM [28]: 7.4% | inhibition of growth at 10 µM [29]: 29.9% | inhibition of growth at 10 µM [30]: 53% | inhibition of growth at 10 µM [31]: 18.3% | IC50 [32]: > 100 µM | inhibition of growth at 10 µM [33]: 10.3% | inhibition of growth at 10 µM [34]: 65.5% | inhibition of growth at 10 µM [35]: 64.1% | inhibition of growth at 10 µM [36]: 81.7% | inhibition of growth at 10 µM [37]: 12.6% | inhibition of growth at 10 µM [38]: 96% | inhibition of growth at 10 µM [39]: 43.1% | inhibition of growth at 10 µM [40]: 7.65% | inhibition of growth at 10 µM [41]: 20% | inhibition of growth at 10 µM [42]: 34.9% | inhibition of growth at 10 µM [43]: 25.1% | inhibition of growth at 10 µM [44]: 16.2% | inhibition of growth at 10 µM [45]: 12.9% | inhibition of growth at 10 µM [46]: 75.7% | inhibition of growth at 10 µM [47]: 18% | inhibition of growth at 10 µM [48]: 66.4% | inhibition of growth at 10 µM [49]: 13.4% | inhibition of growth at 10 µM [50]: 34.6% | inhibition of growth at 10 µM [51]: 73.8% | inhibition of growth at 10 µM [52]: 24.5%
